One series has as its system HEK293-TOP cells. Briefly: TOPFlash Wnt reporter assay. Conditions: 18 h. The class given is cell-based. How it is done:
Figure 4. Identification of functional properties of KY19382 in activating the Wnt/β-catenin pathway. (A) Chemical structure of KY19382. (B) In vitro binding assay to analyze the effect of KY19382 on CXXC5–DVL interaction (mean ± SEM, n = 3). The IC50 value was determined from the dose–response curve. (C) In vitro kinase assay to analyze the effect of KY19382 on kinase activity of GSK3β (mean ± SEM, n = 3). The IC50 value was determined from the dose–response curve. (D) Analyses of TOPFlash activity in HEK293 reporter cells grown with the indicated concentrations of KY19382 for 18 h (mean ± SEM, n = 4; t test, **P < 0.005 and ***P < 0.0005 versus DMSO-treated control). (E) Immunoblot analyses with the indicated antibodies in ATDC5 cells treated with I3O or KY19382 for 24 h. (F) Immunoblot analyses of whole cell lysates immunoprecipitated with anti-Myc in ATDC5 cells treated with 0.1 μM KY19382 for 4 h after transfection with pCMV-FLAG-DVL1 and pcDNA3.1-CXXC5-Myc. (G) Immunocytochemical staining (left) and quantitative analyses (mean ± SEM, n = 3; t test, **P < 0.005) (right) for β-catenin in ATDC5 cells treated with 0.1 μM KY19382 for 48 h. Scale bar, 100 μm.
HEK293-TOP cells were seeded into each well of a 24-well plate. The cells were treated with individual compounds at indicated concentration and cultured for 18 h. […]
In general terms: A reporter such as luciferase makes a cellular process visible.

Series [1] can be described thus: Toxicity observations in mice treated with KY19382 for 10 wk. Conditions: 0.1 mg/kg i.p. daily for 10 wk. The class given is in vivo, mouse. How it is done:
Figure S9. The effects of KY19382 on articular cartilage and liver tissues, or weight. Data are shown from mice used in Fig 5J. (A, B) H&E staining of articular cartilage (A) and liver (B) tissues. (C) During treatment, the weights of mice were measured every 5–7 d (mean ± SEM, n = 7∼15). Scale bars, 100 μm.
Cxxc5^−/− mice were established in a previous study ([Kim et al, 2015]). To manipulate growth plate senescence by estrogen, 3-wk-old Cxxc5^+/+ and Cxxc5^−/− male mice received weekly i.m. injections of either 70 μg/kg estradiol (E2) cypionate (Sigma-Aldrich) or vehicle (cottonseed oil) for 3 wk. To investigate the effects of KY19382 treatment on longitudinal bone growth, C57BL/6 male mice were purchased from KOATECH (Gyeonggido, Korea). KY19382 (0.1 mg/kg) was administered daily by i.p. injection to 3- and 7-wk-old mice for 2 wk or to 3-wk-old mice for 10 wk. For BrdU labeling experiments, the mice were i.p. injected with 50 mg/kg BrdU (Sigma-Aldrich) before 24 h to euthanize. All animal procedures were approved by the Institutional Animal Care and Use Committee of Yonsei University (Korea) and conducted based on the guidelines of the Korean Food and Drug Administration.

Another series concerns Various cells. Briefly: Cytotoxicity test (WST-1 cell viability). The class given is cell-based. Conditions: 0.01-100 μM, 24 hours. How it is done:
intravenous; IP, intraperitoneal; Tmax, Time to maximum plasm concentration; Cmax, Maximum plasma concentration after intraperitoneal injection; AUC, Area under the curve; CL, clearance; Vss, Volume of distribution at steady state; T1/2, Elimination half-life; F, […]
Table R2. Cytotoxicity test for KY19382 […]
viability was measured using WST-1. The IC50 value was determined from the dose-response […]
This manuscript addresses the role of CXXC5, a negative regulator of Wnt/beta-Catenin signaling, on growth plate senescence and associated longitudinal bone growth.
Authors used a peptide PTD-DBMP, and a small molecule KY19382, which interferes with GSK-3b activity and CXXC5-DVL interaction. Such interference activates Wnt/beta-catenin signaling that delays growth plate senescence, resulting in longitudinal bone growth in mice; thereby proposing CXXC5 as a potential target to enhance longitudinal growth of children at the risk of height retardation. This is a well
(1 picture or pasted object on this page, not shown here)
In general terms: Tetrazolium dyes change colour on reduction, which living cells bring about.

The test system of a further series is tibiae (E15.5). The series is described as follows: Tibial organ culture (ex vivo). The arrangement: species or system mouse. Conditions: 100 nM, 6 d. How it is done:
Figure 2. The effects of estrogen on CXXC5 expression and the mediation of growth plate senescence. (A) Immunoblotting (upper) and quantitative analyses (mean ± SEM, n = 3) (lower) in C28/I2 cells treated with 100 nM E2 (17β-estradiol) for 0, 1, 3, 6, 24, 48, or 72 h. (B) Immunocytochemical staining (left) and quantitative analyses of the fluorescent intensity (mean ± SEM, n = 3; t test, **P < 0.005 and ***P < 0.0005) (right) in C28/I2 cells treated with 100 nM E2 for 40 h. Scale bars, 100 μm. (C–E) Tibial organ cultures (E15.5) incubated with 100 nM E2 for 6 d. Representative images at 6 d (C, left) and quantitative analyses of the growth changes (mean ± SEM, n = 5; t test, ***P < 0.0005) (C, right). Scale bar, 1 mm. H&E staining (D, left) and quantification of each zone height (mean ± SEM, n = 5; t test, *P < 0.05 and **P < 0.005) (D, right) in the growth plate. Scale bar, 200 μm. IHC analyses of β-catenin and CXXC5 (E). Scale bars, 50 μm. (F) 3-wk-old Cxxc5^+/+ and Cxxc5^−/− mice were treated with E2 cypionate (70 μg/kg) by i.m. injection once a week for 3 wk (n = 3–4). Representative images of H&E staining and IHC analyses for BrdU, β-catenin, and CXXC5 in the growth plates of proximal tibiae are shown. […] Tibial length was measured before treatment and after 6 d in culture. The samples were then prepared for paraffin embedding, sectioned, and analyzed by H&E and IHC staining.

Each structure is given as a SMILES string.

Take `CON=C1C(=C2C(=O)Nc3cc(Cl)c(Cl)cc32)Nc2ccccc21` [KY19382, 5,6-dichloroindirubin-3′-methoxime]: in the series on HEK293-TOP cells, the “TOPFlash Wnt reporter activity” value is “strong enhancement”. In addition, in series [1], the “body weight during treatment” value is reported as “no difference in weight”; the “histology of articular cartilage and liver tissues” value is given as “no histological abnormalities were detected”. In addition, the “cytotoxicity in variety of cell types” value with Various cells is given as “does not induce cytotoxicity”.
Consider `C[C@]12CC[C@@H]3c4ccc(O)cc4CC[C@H]3[C@@H]1CC[C@@H]2O` [E2, 17β-estradiol], for which the “tibial length in ex vivo tibial culture” value with tibiae (E15.5) is on record as “reduced tibial length”.
